According to ChEMBL document CHEMBL3797190, “Development of 3,5-Dinitrobenzylsulfanyl-1,3,4-oxadiazoles and Thiadiazoles as Selective Antitubercular Agents Active Against Replicating and Nonreplicating Mycobacterium tuberculosis” (J Med Chem, 2016):
In brackets after ≈: the same amount, converted by molar mass.

Tests used:
[1] = test system: Mycobacterium tuberculosis; assay: Antimycobacterial activity against multi drug resistant Mycobacterium tuberculosis Praha 4 after 14 days by microdilution method; conditions: Praha 4, 336 h
[2] = test system: Mycobacterium tuberculosis; assay: Antimycobacterial activity against multi drug resistant Mycobacterium tuberculosis Praha 131 after 14 days by microdilution method; format: functional; conditions: for MIC99: Praha 131, 336 h
[3] = test system: Mycobacterium tuberculosis; assay: Antimycobacterial activity against multi drug resistant Mycobacterium tuberculosis 9449/2007 after 14 days by microdilution method; format: functional; conditions: for MIC99: 9449/2007, 336 h
[4] = test system: Mycobacterium tuberculosis; assay: Antimycobacterial activity against multi drug resistant Mycobacterium tuberculosis 8666/2010 after 14 days by microdilution method; format: functional; conditions: for MIC99: 8666/2010, 336 h
[5] = test system: Mycobacterium tuberculosis; assay: Antimycobacterial activity against multi drug resistant Mycobacterium tuberculosis Praha 1 after 14 days by microdilution method; format: functional; conditions: for MIC99: Praha 1, 336 h
[6] = test system: Mycobacterium tuberculosis; assay: microbe, parasite or virus in culture; conditions: 234/2005, 336 h
[7] = test system: Mycobacterium tuberculosis; assay: Antimycobacterial activity against multi drug resistant Mycobacterium tuberculosis 234/2005 after 21 days by microdilution method; format: functional; conditions: 234/2005, 504 h
[8] = test system: Mycobacterium tuberculosis; assay: Antimycobacterial activity against multi drug resistant Mycobacterium tuberculosis Praha 4 after 21 days by microdilution method; format: functional; conditions: Praha 4, 504 h
[9] = test system: Mycobacterium tuberculosis; assay: Antimycobacterial activity against multi drug resistant Mycobacterium tuberculosis Praha 131 after 21 days by microdilution method; format: functional; conditions: Praha 131, 504 h
[10] = test system: Mycobacterium tuberculosis; assay: Antimycobacterial activity against multi drug resistant Mycobacterium tuberculosis 9449/2007 after 21 days by microdilution method; format: functional; conditions: 9449/2007, 504 h
[11] = test system: Mycobacterium tuberculosis; assay: Antimycobacterial activity against multi drug resistant Mycobacterium tuberculosis 8666/2010 after 21 days by microdilution method; format: functional; conditions: 8666/2010, 504 h
[12] = test system: Mycobacterium tuberculosis; assay: Antimycobacterial activity against multi drug resistant Mycobacterium tuberculosis Praha 1 after 21 days by microdilution method; format: functional; conditions: Praha 1, 504 h

| Compound | MIC99 [1] | MIC>99 [2] | MIC>99 [3] | MIC>99 [4] | MIC>99 [5] | MIC99 [2] | MIC99 [3] | MIC99 [4] | MIC99 [6] | MIC99 [5] | MIC99 [7] | MIC99 [8] | MIC99 [9] | MIC99 [10] | MIC99 [11] | MIC99 [12] |
| --- | --- | --- | --- | --- | --- | --- | --- | --- | --- | --- | --- | --- | --- | --- | --- | --- |
| CC1COc2c(N3CCN(C)CC3)c(F)cc3c(=O)c(C(=O)O)cn1c23 (stereo unspecified) [OFLOXACIN] | > 16 µM |  |  |  |  |  |  |  |  |  |  |  |  |  |  |  |
| GENTAMICIN |  | > 8 µM | 1 µM | 2 µM | 1 µM |  |  |  |  |  |  |  |  |  |  |  |
| CN[C@@H]1[C@H](O[C@H]2[C@H](O[C@H]3[C@H](O)[C@@H](O)[C@H](N=C(N)N)[C@@H](O)[C@@H]3N=C(N)N)O[C@@H](C)[C@]2(O)C=O)O[C@@H](CO)[C@H](O)[C@H]1O [STREPTOMYCIN] | > 32 µM |  |  |  |  | > 32 µM | > 32 µM | > 32 µM |  |  |  |  |  |  |  |  |
| O=[N+]([O-])c1cc(CSc2nnc(-c3ccccc3)o2)cc([N+](=O)[O-])c1 | ≤ 0.03 µM |  |  |  |  | ≤ 0.03 µM |  | ≤ 0.03 µM | ≤ 0.03 µM |  |  |  |  |  |  |  |
| CO[C@H]1/C=C/O[C@@]2(C)Oc3c(C)c(O)c4c(O)c(c(/C=N/N5CCN(C)CC5)c(O)c4c3C2=O)NC(=O)/C(C)=C\C=C\[C@H](C)[C@H](O)[C@@H](C)[C@@H](O)[C@@H](C)[C@H](OC(C)=O)[C@@H]1C [RIFAMPIN] | > 8 µM |  |  |  |  | > 8 µM | > 8 µM | > 8 µM | > 8 µM | > 8 µM |  |  |  |  |  |  |
| O=[N+]([O-])c1cc(CSc2nnc(-c3ccc(Cl)cc3)s2)cc([N+](=O)[O-])c1 | 0.25 µM (≈ 0.102 µg/mL) |  |  |  |  | 0.5 µM (≈ 0.204 µg/mL) | 0.25 µM (≈ 0.102 µg/mL) | 0.25 µM (≈ 0.102 µg/mL) | 0.5 µM (≈ 0.204 µg/mL) | 0.25 µM (≈ 0.102 µg/mL) | 0.5 µM (≈ 0.204 µg/mL) | 0.5 µM (≈ 0.204 µg/mL) | 0.5 µM (≈ 0.204 µg/mL) | 0.5 µM (≈ 0.204 µg/mL) | 0.5 µM (≈ 0.204 µg/mL) | 0.5 µM (≈ 0.204 µg/mL) |
| NCC[C@H](O)C(=O)N[C@@H]1C[C@H](N)[C@@H](O[C@H]2O[C@H](CN)[C@@H](O)[C@H](O)[C@H]2O)[C@H](O)[C@H]1O[C@H]1O[C@H](CO)[C@@H](O)[C@H](N)[C@H]1O [AMIKACIN] |  |  |  |  |  | > 32 µM |  |  |  |  |  |  |  |  |  |  |
| COc1ccc(-c2nnc(SCc3cc([N+](=O)[O-])cc([N+](=O)[O-])c3)s2)cc1 | 0.125 µM (≈ 0.0506 µg/mL) |  |  |  |  | 0.125 µM (≈ 0.0506 µg/mL) | 0.125 µM (≈ 0.0506 µg/mL) | 0.06 µM (≈ 0.0243 µg/mL) | 0.125 µM (≈ 0.0506 µg/mL) | 0.125 µM (≈ 0.0506 µg/mL) | 0.25 µM (≈ 0.101 µg/mL) | 0.25 µM (≈ 0.101 µg/mL) | 0.25 µM (≈ 0.101 µg/mL) | 0.25 µM (≈ 0.101 µg/mL) | 0.125 µM (≈ 0.0506 µg/mL) | 0.25 µM (≈ 0.101 µg/mL) |
| COc1ccc(-c2nnc(SCc3cc([N+](=O)[O-])cc([N+](=O)[O-])c3)o2)cc1 | 0.06 µM (≈ 0.0233 µg/mL) |  |  |  |  | 0.06 µM (≈ 0.0233 µg/mL) | 0.06 µM (≈ 0.0233 µg/mL) | 0.06 µM (≈ 0.0233 µg/mL) | 0.06 µM (≈ 0.0233 µg/mL) | 0.06 µM (≈ 0.0233 µg/mL) |  |  |  |  | 0.06 µM (≈ 0.0233 µg/mL) |  |
